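Grown in 96-well plates, cells were treated for 48 hours with each compound at five concentrations. Insufficient inhibition: endpoint recorded as highest concentration tested. Here, GI50 denotes the concentration required for 50% inhibition of growth. TGI denotes the concentration required for complete inhibition of growth.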
Key:
Test in all cases: NCI-60 cell line screen, 48 h; in the data active = GI50 below about 0.43 µM; inactive = the rest
NCI-H522 lung = system: NCI-H522 lung
KM12 colon = system: KM12 colon
HS 578T breast = system: HS 578T breast
BT-549 breast = system: BT-549 breast
DU-145 prostate = system: DU-145 prostate
HCC-2998 colon = system: HCC-2998 colon
A549 NSCLC = system: A549 NSCLC
A498 renal = system: A498 renal
SW-620 colon = system: SW-620 colon
COLO 205 colon = system: COLO 205 colon
HT29 colon = system: HT29 colon
SK-MEL-5 melanoma = system: SK-MEL-5 melanoma
U251 CNS = system: U251 CNS
IGROV1 ovarian = system: IGROV1 ovarian
OVCAR-4 ovarian = system: OVCAR-4 ovarian
SN12C renal = system: SN12C renal
SNB-19 CNS = system: SNB-19 CNS
MDA-MB-231 breast = system: MDA-MB-231 breast
NCI-H23 lung = system: NCI-H23 lung
UO-31 renal = system: UO-31 renal
RPMI-8226 leukemia = system: RPMI-8226 leukemia
SF-295 CNS = system: SF-295 CNS
NCI-H460 lung = system: NCI-H460 lung
786-0 renal = system: 786-0 renal
SK-OV-3 ovarian = system: SK-OV-3 ovarian
K-562 leukemia = system: K-562 leukemia
HOP-92 NSCLC = system: HOP-92 NSCLC
MCF7 breast = system: MCF7 breast
M14 melanoma = system: M14 melanoma
HCT-15 colon = system: HCT-15 colon
HCT-116 colon = system: HCT-116 colon
OVCAR-3 ovarian = system: OVCAR-3 ovarian
HOP-62 NSCLC = system: HOP-62 NSCLC
MALME-3M melanoma = system: MALME-3M melanoma
RXF 393 renal = system: RXF 393 renal
NCI/ADR-RES ovarian = system: NCI/ADR-RES ovarian
OVCAR-5 ovarian = system: OVCAR-5 ovarian
SF-539 CNS = system: SF-539 CNS
SK-MEL-2 melanoma = system: SK-MEL-2 melanoma
T-47D breast = system: T-47D breast
UACC-62 melanoma = system: UACC-62 melanoma
ACHN renal = system: ACHN renal
CAKI-1 renal = system: CAKI-1 renal
PC-3 prostate = system: PC-3 prostate
NCI-H226 lung = system: NCI-H226 lung
OVCAR-8 ovarian = system: OVCAR-8 ovarian
UACC-257 melanoma = system: UACC-257 melanoma
MDA-MB-435 = system: MDA-MB-435
EKVX NSCLC = system: EKVX NSCLC
HL-60(TB) leukemia = system: HL-60(TB) leukemia
SF-268 CNS = system: SF-268 CNS
LOX IMVI melanoma = system: LOX IMVI melanoma
CCRF-CEM leukemia = system: CCRF-CEM leukemia
SK-MEL-28 melanoma = system: SK-MEL-28 melanoma
SNB-75 CNS = system: SNB-75 CNS
TK-10 renal = system: TK-10 renal

OCC(O)C(O)C(O)C(O)c1nnc2c(-c3ccccc3)nc3ccccc3n12 (configuration not stated)
96.3 µM: TGI (OVCAR-4 ovarian)
> 100 µM: TGI (NCI-H522 lung) | TGI (KM12 colon) | TGI (HS 578T breast) | TGI (BT-549 breast) | TGI (DU-145 prostate) | TGI (HCC-2998 colon) | TGI (A549 NSCLC) | TGI (A498 renal) | TGI (SW-620 colon) | TGI (COLO 205 colon) | TGI (HT29 colon) | TGI (SK-MEL-5 melanoma) | TGI (U251 CNS) | TGI (IGROV1 ovarian) | TGI (SN12C renal) | TGI (SNB-19 CNS) | TGI (MDA-MB-231 breast) | TGI (NCI-H23 lung) | TGI (UO-31 renal) | TGI (RPMI-8226 leukemia) | TGI (SF-295 CNS) | TGI (NCI-H460 lung) | TGI (786-0 renal) | TGI (SK-OV-3 ovarian) | TGI (K-562 leukemia) | TGI (HOP-92 NSCLC) | TGI (MCF7 breast) | TGI (M14 melanoma) | TGI (HCT-15 colon) | TGI (HCT-116 colon) | TGI (OVCAR-3 ovarian) | TGI (HOP-62 NSCLC) | TGI (MALME-3M melanoma) | TGI (RXF 393 renal) | TGI (NCI/ADR-RES ovarian) | TGI (OVCAR-5 ovarian) | TGI (SF-539 CNS) | TGI (SK-MEL-2 melanoma) | TGI (T-47D breast) | TGI (UACC-62 melanoma) | TGI (ACHN renal) | TGI (CAKI-1 renal) | TGI (PC-3 prostate) | TGI (NCI-H226 lung) | TGI (OVCAR-8 ovarian) | TGI (UACC-257 melanoma) | TGI (MDA-MB-435) | TGI (EKVX NSCLC) | TGI (HL-60(TB) leukemia) | TGI (SF-268 CNS) | TGI (LOX IMVI melanoma) | TGI (CCRF-CEM leukemia) | TGI (SK-MEL-28 melanoma) | TGI (SNB-75 CNS) | TGI (TK-10 renal)
inactive: GI50 (NCI-H522 lung) 64.1 µM | GI50 (KM12 colon) > 100 µM | GI50 (HS 578T breast) 57.9 µM | GI50 (BT-549 breast) 56.4 µM | GI50 (DU-145 prostate) > 100 µM | GI50 (HCC-2998 colon) 62.4 µM | GI50 (A549 NSCLC) > 100 µM | GI50 (A498 renal) 38.2 µM | GI50 (SW-620 colon) > 100 µM | GI50 (COLO 205 colon) 74 µM | GI50 (HT29 colon) 86.3 µM | GI50 (SK-MEL-5 melanoma) 70.3 µM | GI50 (U251 CNS) > 100 µM | GI50 (IGROV1 ovarian) 14.5 µM | GI50 (OVCAR-4 ovarian) 16 µM | GI50 (SN12C renal) > 100 µM | GI50 (SNB-19 CNS) > 100 µM | GI50 (MDA-MB-231 breast) 32.8 µM | GI50 (NCI-H23 lung) > 100 µM | GI50 (UO-31 renal) > 100 µM | GI50 (RPMI-8226 leukemia) 67.2 µM | GI50 (SF-295 CNS) > 100 µM | GI50 (NCI-H460 lung) > 100 µM | GI50 (786-0 renal) > 100 µM | GI50 (SK-OV-3 ovarian) > 100 µM | GI50 (K-562 leukemia) 78.3 µM | GI50 (HOP-92 NSCLC) > 100 µM | GI50 (MCF7 breast) 43.5 µM | GI50 (M14 melanoma) > 100 µM | GI50 (HCT-15 colon) 53.1 µM | GI50 (HCT-116 colon) > 100 µM | GI50 (OVCAR-3 ovarian) > 100 µM | GI50 (HOP-62 NSCLC) > 100 µM | GI50 (MALME-3M melanoma) 38.7 µM | GI50 (RXF 393 renal) 56.8 µM | GI50 (NCI/ADR-RES ovarian) 69.2 µM | GI50 (OVCAR-5 ovarian) > 100 µM | GI50 (SF-539 CNS) > 100 µM | GI50 (SK-MEL-2 melanoma) > 100 µM | GI50 (T-47D breast) 28.6 µM | GI50 (UACC-62 melanoma) > 100 µM | GI50 (ACHN renal) > 100 µM | GI50 (CAKI-1 renal) > 100 µM | GI50 (PC-3 prostate) 43.2 µM | GI50 (NCI-H226 lung) > 100 µM | GI50 (OVCAR-8 ovarian) 53.5 µM | GI50 (UACC-257 melanoma) > 100 µM | GI50 (MDA-MB-435) > 100 µM | GI50 (EKVX NSCLC) > 100 µM | GI50 (HL-60(TB) leukemia) > 100 µM | GI50 (SF-268 CNS) > 100 µM | GI50 (LOX IMVI melanoma) 51.5 µM | GI50 (CCRF-CEM leukemia) > 100 µM | GI50 (SK-MEL-28 melanoma) > 100 µM | GI50 (SNB-75 CNS) > 100 µM | GI50 (TK-10 renal) 29.2 µM

Source: PubChem BioAssay (NCI)
